Tested on: Ang-II-induced H2O2 production in HAEC
Experiment: H2O2 levels by Amplex red assay
Assay type: cell-based, human
Settings: Ang-II 500 nM + Mito-Esc 2.5 μM, 16 h
Method: Amplex red reagent was used to detect the released H2O2 from cells. […] Immediately, formation of resorufin fluorescence was measured in multi mode reader (PerkinElmer) with λex=540 and λem=585.
Ang-II is known to increase oxidative stress through increased production of H2O2 (Doughan A K, Harrison D G, Dikalov S I. Circ Res (2008) 102:488-96). […] Further, we assessed the effect of Mito-Esc on H2O2-induced mitochondrial membrane depolarization. HAEC were treated with H2O2 (500 μM) in the presence or absence of Mito-Esc for a period of 16 h and mitochondrial membrane potential was measured using a mitochondrial membrane sensor kit. Mito-Sensor is a cationic dye that fluoresces differently in apoptotic and nonapoptotic cells. […] In apoptotic cells, membrane potentials are altered and the Mito-Sensor dye cannot accumulate in mitochondria and, thus, remain as monomers leading to a green fluorescence.

## O=c1cc(CCCCCCCC[P+](c2ccccc2)(c2ccccc2)c2ccccc2)c2cc(O)c(O)cc2o1.[Br-] [Mito-Esc]
  Ang-II-induced H2O2 levels: completely reversed H2O2 levels to control conditions
